Assay results as given in US11466025B2, “Thienopyridine derivatives containing unsaturated aliphatic olefinic bond, preparation method and use thereof” (Tianjin Institute of Pharmaceutical Research Co., Ltd., priority 2017, dated 2022).
Like-named read-outs stand apart in the source and are kept apart here.

How the values were obtained:
[1] = system: platelet aggregation induced by ADP; experiment: Test of inhibitory effect of compounds on platelet aggregation in rats (ex vivo, ADP-induced, after intragastric administration); parameters: species or system SD rats; conditions: for ED50: Rattus norvegicus; for Inhibition rate (%): platelet aggregation, control = 100%; for Aggregation rate (%): 2 h after administration, ADP 20 uM
Procedure: Test of Inhibitory Effect of Compounds on Platelet Aggregation in Rats Healthy male SD rats were selected and randomly divided into solvent control group, positive drug control group and test compound group. Intragastric administration was carried out, with the administration volume being 10 ml/kg˜bw. […] The platelet count was adjusted to 5×10^8 cells/ml with PPP.

[2] = system: arteriovenous bypass thrombosis in rats; experiment: Test of effect of compounds on arteriovenous bypass thrombosis in rats; assay type: in vivo, SD rats; parameters: Dry weight of thrombus (%): unit not given here; conditions: for ED50: Rattus norvegicus, po; for Inhibition rate (%): dry weight of thrombus; for Dry weight of thrombus (%): loop opened 2.5 h after administration, 15 min
Procedure: Test of Effect of Compounds on Arteriovenous Bypass Thrombosis in Rats
Male SD rats were randomly divided into solvent control group, positive drug control group and test compound group. The solvent control group was administered a corresponding volume of the solvent. […] Rats were anesthetized with 4% chloral hydrate (0.32 g/kg), and fixed on the operating table at the supine position. The right common carotid artery and the left external jugular vein were separated, and was each inserted with a Teflon tube filled with normal saline solution containing heparin (50 U/mL), which were connected through another Teflon tube. A 6 cm long cotton thread was placed at the joints of the two tubes. After 2.5 h of administration, the arteriovenous loop was opened in each group and circulated for 15 min. The blood flow was interrupted, and the cotton thread wrapped with the thrombus was quickly removed and weighed. The weight of the cotton thread was subtracted to obtain the wet weight of the thrombus, and then it was baked in the oven to constant weight and weighed. The weight of the cotton thread was subtracted to obtain the dry weight of the thrombus.

[3] = system: beagle dogs; experiment: Safety evaluation in single dosing; assay type: in vivo; conditions: intragastric single dose of 2 g/kg; for Activities, mental condition and diet: administration and observation period
Procedure: Safety Evaluation of Compounds I-1 and I-2 in Single Dosing: The test consisted of a physiological control group, a solvent control group, and two administration groups, with 4 animals in each group, half of which were male and the other half of which were female. The animals were intragastrically administered with the test compounds at a single dose of 2 g/kg. The solvent control group was administered with an equal volume of the blank solvent. Animals were daily observed for various conditions during the test. ECG examinations were performed before administration, 1 h after administration, and 7 and 14 days after administration. Hematological and blood biochemical tests were performed before administration and 1, 7 and 12 days after administration.

[4] = Stability of the compounds under high temperature, high humidity and light (influence factors, HPLC); assay type: physicochemical
Procedure: Study on the Stability of the Compounds:
The stability of the compound is investigated under the conditions of high temperature, high humidity and light. The testing conditions for high performance liquid chromatography (HPLC) are as follows:
Instrument: high performance liquid chromatography;
Column: Inertsil C8-3, 150 mm×4.6 mm, 5 μm;
Mobile phase A: acetonitrile; mobile phase B: 5 mM ammonium dihydrogen phosphate;
Detection wavelength: 220 nm;
Column temperature: 35° C.;
Sample chamber temperature: 25° C.;
Column: Agilent Poroshell 120 EC-C18, 100 mm×4.6 mm, 2.7 μm;
Column temperature: 30° C.;
Other conditions are the same as that in Method 1.
(§1) Samples relating to Compound I-2 were tested using Method 2 and other samples were tested using Method 1. The test results of the influence factors are shown in Table 14, and the test results of the light-avoidance stability test are shown in Table 15.

[5] = Light-avoidance stability test after being packaged with aluminum foil (HPLC); assay type: physicochemical
Procedure: as §1, with “The stability of the compound is investigated under the conditions of high temperature, high humidity and light. The testing conditions for high performance liquid chromatography (HPLC) are as follows: Samples” for “Samples”

[6] = 5 days, High temperature 60° C.
[7] = 10 days, High temperature 60° C.
[8] = 30 days, High temperature 60° C.
[9] = 5 days, Light (aluminum foil) 4500 ± 500 LX
[10] = 10 days, Light (aluminum foil) 4500 ± 500 LX
[11] = 30 days, Light (aluminum foil) 4500 ± 500 LX

C/C=C/C(=O)Oc1cc2c(s1)CCN([C@H](C(=O)OC)c1ccccc1Cl)C2 [Compound I-1, Methyl (S,E)-2-(2-chlorophenyl)-2-(2-(2-butenoyloxy)-6,7-dihydrothieno[3,2-c]pyridin-5(4H)-yl)-acetate]
ED50 ([1]; Platelet, po): 1 mg/kg
Inhibition rate (%) ([1]; rats, intragastric 0.5 mg/kg): 22.4%
Inhibition rate (%) ([1]; rats, intragastric 1 mg/kg): 50.2%
Inhibition rate (%) ([1]; rats, intragastric 2 mg/kg): 77.0%
Aggregation rate (%) ([1]; rats, intragastric 0.5 mg/kg): 46.6 ± 8.1%
Aggregation rate (%) ([1]; rats, intragastric 1 mg/kg): 29.9 ± 8.7 %
Aggregation rate (%) ([1]; rats, intragastric 2 mg/kg): 13.8 ± 11.7 %
ED50 [2]: 7.89 mg/kg
Inhibition rate (%) ([2]; rats, intragastric 1 mg/kg): 18.3%
Inhibition rate (%) ([2]; rats, intragastric 3 mg/kg): 43.2%
Inhibition rate (%) ([2]; rats, intragastric 10 mg/kg): 56.0%
Inhibition rate (%) ([2]; rats, intragastric 30 mg/kg): 64.2%
Dry weight of thrombus (%) ([2]; rats, intragastric 1 mg/kg): 8.3 ± 2.7
Dry weight of thrombus (%) ([2]; rats, intragastric 3 mg/kg): 5.8 ± 1.4
Dry weight of thrombus (%) ([2]; rats, intragastric 10 mg/kg): 4.5 ± 2.4
Dry weight of thrombus (%) ([2]; rats, intragastric 30 mg/kg): 3.6 ± 0.5
ECG examinations, hematological tests and serum biochemical tests [3]: no obvious abnormalities
Activities, mental condition and diet [3]: normal activities, good mental condition, and normal diet
Chromatographic purity % ([4]; 0 day, 0point): 99.612%
Individual maximum impurity % ([4]; 0 day, 0point): 0.236%
Chromatographic purity % ([4]; 5 days, High humidity RH92.5%): 99.583%
Individual maximum impurity % ([4]; 5 days, High humidity RH92.5%): 0.235%
Chromatographic purity % [4, 6]: 99.595%
Individual maximum impurity % [4, 6]: 0.234%
Chromatographic purity % ([4]; 5 days, Light 4500 ± 500 LX): 99.539%
Individual maximum impurity % ([4]; 5 days, Light 4500 ± 500 LX): 0.287%
Chromatographic purity % ([4]; 10 days, High humidity RH92.5%): 99.578%
Individual maximum impurity % ([4]; 10 days, High humidity RH92.5%): 0.234%
Chromatographic purity % [4, 7]: 99.596%
Individual maximum impurity % [4, 7]: 0.232%
Chromatographic purity % ([4]; 10 days, Light 4500 ± 500 LX): 99.502%
Individual maximum impurity % ([4]; 10 days, Light 4500 ± 500 LX): 0.313%
Chromatographic purity % ([4]; 30 days, High humidity RH92.5%): 99.544%
Individual maximum impurity % ([4]; 30 days, High humidity RH92.5%): 0.235%
Chromatographic purity % [4, 8]: 99.570%
Individual maximum impurity % [4, 8]: 0.237%
Chromatographic purity % ([4]; 30 days, Light 4500 ± 500 LX): 98.868%
Individual maximum impurity % ([4]; 30 days, Light 4500 ± 500 LX): 0.698%
Chromatographic purity % ([5]; 0 day, 0point): 99.612%
Individual maximum impurity % ([5]; 0 day, 0point): 0.236%
Chromatographic purity % [5, 9]: 99.598%
Individual maximum impurity % [5, 9]: 0.242%
Chromatographic purity % [5, 10]: 99.565%
Individual maximum impurity % [5, 10]: 0.243%
Chromatographic purity % [5, 11]: 99.555%
Individual maximum impurity % [5, 11]: 0.242%

C/C=C/C=C/C(=O)Oc1cc2c(s1)CCN([C@H](C(=O)OC)c1ccccc1Cl)C2 [Compound I-2, Methyl (S)-2-(2-chlorophenyl)-2-(2-((2E,4E)-2,4-hexadienoyloxy)-6,7-dihydrothieno[3,2-c]pyridin-5(4H)-yl)-acetate]
ED50 ([1]; inhibition of ADP-induced platelet aggregation, rats, oral administration, read-out: ED50): 1.58 mg/kg
Inhibition rate (%) ([1]; rats, intragastric 0.75 mg/kg): 7.0%
Inhibition rate (%) ([1]; rats, intragastric 1.5 mg/kg): 50.8%
Inhibition rate (%) ([1]; rats, intragastric 3 mg/kg): 85.8%
Aggregation rate (%) ([1]; rats, intragastric 0.75 mg/kg): 55.8 ± 13.9%
Aggregation rate (%) ([1]; rats, intragastric 1.5 mg/kg): 29.6 ± 8.7 %
Aggregation rate (%) ([1]; rats, intragastric 3 mg/kg): 8.5 ± 9.4 %
ED50 ([2]; dry weight of thrombus from arteriovenous bypass, rats, intragastric, read-out: ED50): 5.86 mg/kg
Inhibition rate (%) ([2]; rats, intragastric 1 mg/kg): 36.5%
Inhibition rate (%) ([2]; rats, intragastric 3 mg/kg): 40.3%
Inhibition rate (%) ([2]; rats, intragastric 10 mg/kg): 52.1%
Inhibition rate (%) ([2]; rats, intragastric 30 mg/kg): 68.6%
Dry weight of thrombus (%) ([2]; rats, intragastric 1 mg/kg): 6.4 ± 3.6
Dry weight of thrombus (%) ([2]; rats, intragastric 3 mg/kg): 6.1 ± 2.9
Dry weight of thrombus (%) ([2]; rats, intragastric 10 mg/kg): 4.9 ± 2.3
Dry weight of thrombus (%) ([2]; rats, intragastric 30 mg/kg): 3.2 ± 1.5
ECG examinations, hematological tests and serum biochemical tests [3]: no obvious abnormalities
Activities, mental condition and diet [3]: normal activities, good mental condition, and normal diet
Chromatographic purity % ([4]; 0 day, 0point): 98.879%
Isomer % ([4]; 0 day, 0point): 0.705%
Chromatographic purity % ([4]; 5 days, High humidity RH92.5%): 98.897%
Isomer % ([4]; 5 days, High humidity RH92.5%): 0.707%
Chromatographic purity % [4, 6]: 98.840%
Isomer % [4, 6]: 0.696%
Chromatographic purity % ([4]; 5 days, Light 4500 ± 500 LX): 98.853%
Isomer % ([4]; 5 days, Light 4500 ± 500 LX): 0.699%
Chromatographic purity % ([4]; 10 days, High humidity RH92.5%): 98.882%
Isomer % ([4]; 10 days, High humidity RH92.5%): 0.708%
Chromatographic purity % [4, 7]: 98.930%
Isomer % [4, 7]: 0.692%
Chromatographic purity % ([4]; 10 days, Light 4500 ± 500 LX): 98.756%
Isomer % ([4]; 10 days, Light 4500 ± 500 LX): 0.712%
Chromatographic purity % ([4]; 30 days, High humidity RH92.5%): 98.885%
Isomer % ([4]; 30 days, High humidity RH92.5%): 0.704%
Chromatographic purity % [4, 8]: 98.936%
Isomer % [4, 8]: 0.683%
Chromatographic purity % ([4]; 30 days, Light 4500 ± 500 LX): 95.099%
Isomer % ([4]; 30 days, Light 4500 ± 500 LX): 0.695%
Chromatographic purity % ([5]; 0 day, 0point): 98.879%
Individual maximum impurity % ([5]; 0 day, 0point): 0.705%
Chromatographic purity % [5, 9]: 98.348%
Individual maximum impurity % [5, 9]: 0.699%
Chromatographic purity % [5, 10]: 98.544%
Individual maximum impurity % [5, 10]: 0.699%
Chromatographic purity % [5, 11]: 98.434%
Individual maximum impurity % [5, 11]: 0.696%
